According to publication PMC10175918 (Communications Biology, 2023):
Like-named read-outs stand apart in the source and are kept apart here.

Legend:
Experiment in all cases: TGFα-shedding assay-based GPCR screening with chimeric Gα subunit proteins
Type in all cases: cell-based
[1] = target: T1, 348 GPCRs (Homo sapiens, UniProt P04000); settings: 10µM, Favipiravir 100μM
T1 construct: expressed in transfected cells; host or cells: HEK293A
T1 sequence (P04000 1-364): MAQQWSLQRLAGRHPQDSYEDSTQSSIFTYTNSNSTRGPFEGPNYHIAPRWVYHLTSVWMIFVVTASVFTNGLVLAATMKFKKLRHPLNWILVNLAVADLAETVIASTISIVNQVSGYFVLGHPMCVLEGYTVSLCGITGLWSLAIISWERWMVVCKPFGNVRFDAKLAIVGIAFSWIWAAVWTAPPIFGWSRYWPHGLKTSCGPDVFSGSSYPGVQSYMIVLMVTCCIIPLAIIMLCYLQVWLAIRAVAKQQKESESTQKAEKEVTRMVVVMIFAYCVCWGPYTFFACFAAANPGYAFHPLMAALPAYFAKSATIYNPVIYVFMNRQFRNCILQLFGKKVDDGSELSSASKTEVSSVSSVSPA

[2] = target: T2, 348 GPCRs (Homo sapiens, UniProt P32248); settings: CCR7 (C-C motif chemokine receptor 7); 10µM, Favipiravir 100μM
T2 construct: expressed in transfected cells; host or cells: HEK293A
T2 sequence (P32248 25-378): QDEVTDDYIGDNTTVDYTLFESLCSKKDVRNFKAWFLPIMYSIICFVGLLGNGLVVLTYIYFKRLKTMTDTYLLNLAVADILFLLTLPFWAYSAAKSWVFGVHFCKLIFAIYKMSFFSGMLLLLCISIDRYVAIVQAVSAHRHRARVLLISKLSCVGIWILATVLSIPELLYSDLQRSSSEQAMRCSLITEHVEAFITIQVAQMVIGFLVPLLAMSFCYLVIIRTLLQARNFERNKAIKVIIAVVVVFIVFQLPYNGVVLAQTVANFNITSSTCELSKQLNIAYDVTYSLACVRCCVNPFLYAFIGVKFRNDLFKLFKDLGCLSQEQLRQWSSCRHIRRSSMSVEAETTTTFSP

[3] = target: 348 GPCRs (Homo sapiens, UniProt P41143); settings: read-out: % GPCR activation compared to TPA, OPRD1 (opioid receptor, delta 1 (DOR)); 10µM, Favipiravir 100μM
[4] = target: T3, 348 GPCRs (Homo sapiens, UniProt P46092); settings: 10µM, Favipiravir 100μM
T3 construct: expressed in transfected cells; host or cells: HEK293A
T3 sequence (P46092 1-362): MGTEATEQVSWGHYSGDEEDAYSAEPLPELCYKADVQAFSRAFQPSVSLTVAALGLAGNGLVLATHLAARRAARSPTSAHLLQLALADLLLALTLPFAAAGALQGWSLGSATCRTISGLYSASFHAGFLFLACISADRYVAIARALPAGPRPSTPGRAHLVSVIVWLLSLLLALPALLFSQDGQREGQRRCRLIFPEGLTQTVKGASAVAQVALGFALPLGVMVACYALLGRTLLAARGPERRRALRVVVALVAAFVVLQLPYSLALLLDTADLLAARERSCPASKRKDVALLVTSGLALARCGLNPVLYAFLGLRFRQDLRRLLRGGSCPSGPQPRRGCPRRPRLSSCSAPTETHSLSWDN

[5] = target: T4, 348 GPCRs (Homo sapiens, UniProt P48546); settings: 10µM, Favipiravir 100μM
T4 sequence (P48546 22-466): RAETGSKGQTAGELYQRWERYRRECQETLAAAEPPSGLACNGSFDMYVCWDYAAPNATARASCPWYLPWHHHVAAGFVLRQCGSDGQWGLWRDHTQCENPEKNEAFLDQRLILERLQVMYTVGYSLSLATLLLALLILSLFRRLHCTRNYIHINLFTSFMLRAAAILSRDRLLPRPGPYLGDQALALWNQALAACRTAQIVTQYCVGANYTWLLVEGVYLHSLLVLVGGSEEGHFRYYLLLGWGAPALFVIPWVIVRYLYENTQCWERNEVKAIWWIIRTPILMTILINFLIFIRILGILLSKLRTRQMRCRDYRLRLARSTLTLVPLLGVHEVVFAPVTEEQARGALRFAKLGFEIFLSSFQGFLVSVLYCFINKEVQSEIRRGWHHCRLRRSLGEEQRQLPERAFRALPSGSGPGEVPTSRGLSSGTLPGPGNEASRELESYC

[6] = target: T5, 348 GPCRs (Homo sapiens, UniProt Q86SP6); settings: 10µM, Favipiravir 100μM
T5 construct: expressed in transfected cells; host or cells: HEK293A
T5 sequence (Q86SP6 1-731): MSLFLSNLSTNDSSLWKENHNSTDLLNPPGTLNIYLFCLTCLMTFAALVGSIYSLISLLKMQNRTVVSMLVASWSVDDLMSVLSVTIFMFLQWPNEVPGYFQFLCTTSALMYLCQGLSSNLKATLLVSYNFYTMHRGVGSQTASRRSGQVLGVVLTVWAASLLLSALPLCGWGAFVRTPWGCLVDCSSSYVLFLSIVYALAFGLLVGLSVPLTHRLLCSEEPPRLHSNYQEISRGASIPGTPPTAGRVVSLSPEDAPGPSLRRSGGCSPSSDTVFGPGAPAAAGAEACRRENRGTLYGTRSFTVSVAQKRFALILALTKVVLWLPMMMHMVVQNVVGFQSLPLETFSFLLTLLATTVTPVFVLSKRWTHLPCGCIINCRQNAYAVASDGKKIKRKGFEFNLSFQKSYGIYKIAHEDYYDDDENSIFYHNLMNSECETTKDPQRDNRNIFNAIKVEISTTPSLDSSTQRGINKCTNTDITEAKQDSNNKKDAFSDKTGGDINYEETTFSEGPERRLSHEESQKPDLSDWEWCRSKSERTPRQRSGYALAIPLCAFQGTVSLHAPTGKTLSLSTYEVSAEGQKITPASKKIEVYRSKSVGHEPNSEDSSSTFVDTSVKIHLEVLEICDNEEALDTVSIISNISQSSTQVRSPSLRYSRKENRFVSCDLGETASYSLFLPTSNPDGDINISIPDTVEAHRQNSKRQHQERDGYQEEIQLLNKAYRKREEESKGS

[7] = target: T6, 348 GPCRs (Homo sapiens, UniProt Q9UBS5); settings: 10µM, Favipiravir 100μM
T6 construct: expressed in transfected cells; host or cells: HEK293A

[8] = OPN1LW (opsin 1 (cone pigments), long-wave-sensitive), read-out: % GPCR activation compared to TPA
[9] = CCR10 (C-C motif chemokine receptor 10), read-out: % GPCR activation compared to TPA
[10] = GIPR (gastric inhibitory polypeptide receptor), read-out: % GPCR activation compared to TPA
[11] = GPR149 (G protein-coupled receptor 149), read-out: % GPCR activation compared to TPA
[12] = GABBR1 (gamma-aminobutyric acid (GABA) B receptor, 1), read-out: % GPCR activation compared to TPA
[13] = read-out: % GPCR activation compared to TPA, OPN1LW (opsin 1 (cone pigments), long-wave-sensitive)
[14] = read-out: % GPCR activation compared to TPA, CCR10 (C-C motif chemokine receptor 10)
[15] = read-out: % GPCR activation compared to TPA, GIPR (gastric inhibitory polypeptide receptor)
[16] = read-out: % GPCR activation compared to TPA, GPR149 (G protein-coupled receptor 149)
[17] = read-out: % GPCR activation compared to TPA, GABBR1 (gamma-aminobutyric acid (GABA) B receptor, 1)

T6 sequence (Q9UBS5 20-961): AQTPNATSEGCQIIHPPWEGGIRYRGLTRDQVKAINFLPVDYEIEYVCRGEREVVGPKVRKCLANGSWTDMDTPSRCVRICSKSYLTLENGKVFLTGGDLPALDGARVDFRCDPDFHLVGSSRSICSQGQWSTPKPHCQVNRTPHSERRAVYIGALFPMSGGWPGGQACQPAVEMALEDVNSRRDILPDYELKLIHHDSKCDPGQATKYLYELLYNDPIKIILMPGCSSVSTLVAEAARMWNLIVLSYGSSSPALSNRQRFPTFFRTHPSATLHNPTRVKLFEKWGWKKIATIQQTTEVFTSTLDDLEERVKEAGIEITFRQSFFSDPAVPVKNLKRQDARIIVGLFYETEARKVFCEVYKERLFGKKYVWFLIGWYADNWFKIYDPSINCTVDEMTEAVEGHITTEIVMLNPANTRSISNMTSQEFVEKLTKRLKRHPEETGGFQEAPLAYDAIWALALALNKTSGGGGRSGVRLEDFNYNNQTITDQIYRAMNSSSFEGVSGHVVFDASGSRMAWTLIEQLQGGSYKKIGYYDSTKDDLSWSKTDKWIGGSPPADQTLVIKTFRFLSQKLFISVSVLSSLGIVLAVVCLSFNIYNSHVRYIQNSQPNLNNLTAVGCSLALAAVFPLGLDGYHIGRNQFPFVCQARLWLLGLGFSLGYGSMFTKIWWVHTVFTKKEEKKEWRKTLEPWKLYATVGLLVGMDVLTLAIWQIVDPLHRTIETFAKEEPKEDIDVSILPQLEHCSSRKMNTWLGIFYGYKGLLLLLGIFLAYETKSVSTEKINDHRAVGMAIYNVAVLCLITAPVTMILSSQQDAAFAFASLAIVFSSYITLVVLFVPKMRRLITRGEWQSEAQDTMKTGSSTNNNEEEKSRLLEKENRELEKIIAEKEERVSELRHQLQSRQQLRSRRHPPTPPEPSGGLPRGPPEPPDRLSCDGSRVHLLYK
Sequence of 348 GPCRs (Homo sapiens, UniProt P41143) (P41143 whole entry): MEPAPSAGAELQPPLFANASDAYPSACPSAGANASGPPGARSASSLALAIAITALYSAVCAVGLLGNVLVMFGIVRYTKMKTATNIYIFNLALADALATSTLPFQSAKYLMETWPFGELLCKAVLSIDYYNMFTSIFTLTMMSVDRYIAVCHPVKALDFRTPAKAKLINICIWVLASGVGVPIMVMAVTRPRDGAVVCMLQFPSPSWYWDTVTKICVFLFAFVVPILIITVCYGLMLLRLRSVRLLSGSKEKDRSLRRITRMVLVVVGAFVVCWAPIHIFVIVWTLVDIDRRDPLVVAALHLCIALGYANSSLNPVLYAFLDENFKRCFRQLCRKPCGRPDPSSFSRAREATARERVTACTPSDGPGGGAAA

SMILES	activation at 100 µM [1, 8]	% GPCR activation compared to TPA [2]	activation at 100 µM [3]	activation at 100 µM [4, 9]	activation at 10 µM [5, 10]	activation at 100 µM [6, 11]	activation at 100 µM [7, 12]	activation at 100 µM [1, 13]	activation at 100 µM [4, 14]	activation at 10 µM [5, 15]	activation at 100 µM [6, 16]	activation at 100 µM [7, 17]
N#C[C@@]1(c2ccc3c(N)ncnn23)O[C@H](CO)[C@@H](O)[C@H]1O [GS441524]	-0.985%	-0.998%	-2.68%	-6.97%	-3.77%	-0.814%	-3.77%	–	–	–	–	–
CCC(CC)COC(=O)[C@H](C)N[P@](=O)(OC[C@H]1O[C@@](C#N)(c2ccc3c(N)ncnn23)[C@H](O)[C@@H]1O)Oc1ccccc1 [remdesivir]	–	–	-3.05%	–	–	–	–	0.199%	-7.76%	-2.47%	-0.636%	-3.66%
CC(C)OC(=O)[C@H](C)N[P@](=O)(OC[C@H]1O[C@@H](n2ccc(=O)[nH]c2=O)[C@](C)(F)[C@@H]1O)Oc1ccccc1 [sofosbuvir]	–	-0.9167%	-2.64%	–	–	–	–	-0.65%	0.131%	-0.359%	-7.06%	-1.14%
NC(=O)c1nc(F)cnc1O [favipiravir, 6-fluoro-3-hydroxy-2-pyrazinecarboxamide]	0.263%	-0.3349%	-3.28%	-6.03%	-1.79%	0.0439%	-4.01%	–	–	–	–	–
CC(C)C(=O)OC[C@H]1O[C@@H](n2ccc(NO)nc2=O)[C@H](O)[C@@H]1O [molnupiravir]	0.884%	0.5462%	-1.93%	0.0221%	1.42%	-41.7%	-1.05%	–	–	–	–	–
